# Results as given in patent publication US10894788B2, “Inhibitors of cyclin-dependent kinases” (Kinnate Biopharma Inc., priority 2018, dated 2021).
# Target: CDK12 (Homo sapiens (Human), UniProt Q9NYV4)
# Experiment: Radiometric protein kinase assay (33PanQinase Activity Assay), Assay Condition B (thiol-free conditions)
# Assay type: biochemical
# Conditions: thiol-free conditions (1 mM TCEP, glutathione removed)
# Procedure: Example 2—Assay Condition B (Thiol-Free Conditions)
# The IC50 profile of compounds was determined using one protein kinase in a customized, thiol free assay. […] Prior to testing, the 1×10^−03 M stock solutions in column 2 of the master plates were subjected to a serial, semi-logarithmic dilution using 100% DMSO as a solvent. […] Column 1 and 7 were filled with 100% DMSO as controls. Subsequently, 2×10 microliter from each well of the serial diluted copy plates were aliquoted with a 96 channel pipettor into two identical sets of “compound dilution plates”. All plates were barcoded for automated identification and tracking purposes. […] All compounds were stored as powder until being solubilized in DMSO. Solubilized compounds were stored as 1×10^−02 M/100% DMSO stock solutions. Prior to the assay process, 90 microliters of H2O were added to each well of a set of compound dilution plates. To minimize potential precipitation, the H2O was added to each plate only a few minutes before the transfer of the compound solutions into the assay plates. Each plate was shaken thoroughly, resulting in compound dilution plates with a final of 10% DMSO. For each assay, 5 microliters of solution from each well of the compound dilution plates/10% DMSO were transferred into the assay plate. The final volume of the assay was 50 μl. All compounds were tested at 10 final assay concentrations in the range from 1×10^−05 M to 3×10^−10 M, in singlicate. The final DMSO concentration in the reaction cocktails was 1% in all cases. A radiometric protein kinase assay (33PanQinase® Activity Assay) was used for measuring the kinase activity of the protein kinase. All kinase assays were performed in 96-well FlashPlates™ from PerkinElmer (Boston, Mass., USA) in a 50 microliter reaction volume. The reaction cocktail was pipetted in four steps in the following order: 20 microliter of assay buffer (standard buffer)·5 microliter of ATP solution (in H2O)·5 microliter of test compound (in 10% DMSO)·20 microliter enzyme/substrate mix. […] For all experiments labeled as “Thiol-free”, all glutathione was exchanged from protein preparations so as to be removed from the assay and final buffer conditions contained no thiol-containing reagents. This was done so there would be no interference with the key cysteines in the proteins of interest.
# For data analysis, the median value of the counts in column 1 (n=8) of each assay plate was defined as “low control”. This value reflects unspecific binding of radioactivity to the plate in the absence of a protein kinase but in the presence of the substrate. The median value of the counts in column 7 of each assay plate (n=8) was taken as the “high control”, i.e. full activity in the absence of any inhibitor. The difference between high and low control was taken as 100% activity. As part of the data evaluation the low control value from a particular plate was subtracted from the high control value as well as from all 80 “compound values” of the corresponding plate. The residual activity (in %) for each well of a particular plate was calculated by using the following formula: Res. Activity (%)=100×[(cpm of compound−low control)/(high control−low control)]
# The residual activities for each concentration and the compound IC50 values were calculated using Quattro Workflow V3.1.1 (Quattro Research GmbH, Munich, Germany; www.quattro-research.com). […] The fitting method used was a least-squares fit. As a parameter for assay quality, the Z′-factor (Zhang et al., J. Biomol. Screen. 2: 67-73, 1999) for the low and high controls of each assay plate (n=8) was used. ProQinase's criterion for repetition of an assay plate is a Z′-factor below 0.4 (Iversen et al., J. Biomol. Screen. 3: 247-252, 2006).
# CDK12, sequence (Q9NYV4 whole entry): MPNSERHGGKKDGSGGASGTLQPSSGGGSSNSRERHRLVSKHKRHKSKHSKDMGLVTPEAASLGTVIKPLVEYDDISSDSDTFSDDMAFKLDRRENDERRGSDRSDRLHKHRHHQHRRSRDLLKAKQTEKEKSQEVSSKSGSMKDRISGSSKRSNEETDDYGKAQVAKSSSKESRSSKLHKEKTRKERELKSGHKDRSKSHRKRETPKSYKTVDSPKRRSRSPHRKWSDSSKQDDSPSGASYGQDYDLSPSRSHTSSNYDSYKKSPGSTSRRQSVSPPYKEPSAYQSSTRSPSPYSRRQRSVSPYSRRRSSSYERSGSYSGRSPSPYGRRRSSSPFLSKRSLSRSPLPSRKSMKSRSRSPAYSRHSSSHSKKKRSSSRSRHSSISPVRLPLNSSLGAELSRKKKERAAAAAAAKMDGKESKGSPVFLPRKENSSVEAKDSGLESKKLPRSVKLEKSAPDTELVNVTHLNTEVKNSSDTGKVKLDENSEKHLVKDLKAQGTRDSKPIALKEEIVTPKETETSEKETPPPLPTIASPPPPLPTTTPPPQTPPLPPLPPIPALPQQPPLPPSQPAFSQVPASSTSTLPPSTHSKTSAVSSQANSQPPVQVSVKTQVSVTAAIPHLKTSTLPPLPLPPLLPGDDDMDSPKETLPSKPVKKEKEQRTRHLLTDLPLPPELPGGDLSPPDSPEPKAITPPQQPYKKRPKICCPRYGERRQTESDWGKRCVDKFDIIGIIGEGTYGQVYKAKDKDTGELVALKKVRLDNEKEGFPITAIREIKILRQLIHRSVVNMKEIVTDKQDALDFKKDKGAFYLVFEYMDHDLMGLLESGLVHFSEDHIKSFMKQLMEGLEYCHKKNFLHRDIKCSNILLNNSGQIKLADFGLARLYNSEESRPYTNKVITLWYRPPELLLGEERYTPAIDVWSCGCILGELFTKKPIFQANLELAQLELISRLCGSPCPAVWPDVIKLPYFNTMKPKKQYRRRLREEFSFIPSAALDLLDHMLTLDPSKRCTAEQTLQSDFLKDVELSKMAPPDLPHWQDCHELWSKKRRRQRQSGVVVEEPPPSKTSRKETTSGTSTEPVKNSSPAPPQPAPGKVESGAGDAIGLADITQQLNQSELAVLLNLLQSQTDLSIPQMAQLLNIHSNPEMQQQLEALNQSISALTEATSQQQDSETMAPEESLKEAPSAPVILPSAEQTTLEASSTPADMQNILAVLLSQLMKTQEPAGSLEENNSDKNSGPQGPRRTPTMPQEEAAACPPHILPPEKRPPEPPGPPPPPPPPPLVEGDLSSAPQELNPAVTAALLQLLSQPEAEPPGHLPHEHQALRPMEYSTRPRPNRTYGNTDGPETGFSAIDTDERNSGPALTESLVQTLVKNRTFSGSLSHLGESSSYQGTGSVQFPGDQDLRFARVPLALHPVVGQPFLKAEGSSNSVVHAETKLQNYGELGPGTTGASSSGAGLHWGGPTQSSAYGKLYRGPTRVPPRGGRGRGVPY
# CDK12, sequence (O75909 whole entry partner): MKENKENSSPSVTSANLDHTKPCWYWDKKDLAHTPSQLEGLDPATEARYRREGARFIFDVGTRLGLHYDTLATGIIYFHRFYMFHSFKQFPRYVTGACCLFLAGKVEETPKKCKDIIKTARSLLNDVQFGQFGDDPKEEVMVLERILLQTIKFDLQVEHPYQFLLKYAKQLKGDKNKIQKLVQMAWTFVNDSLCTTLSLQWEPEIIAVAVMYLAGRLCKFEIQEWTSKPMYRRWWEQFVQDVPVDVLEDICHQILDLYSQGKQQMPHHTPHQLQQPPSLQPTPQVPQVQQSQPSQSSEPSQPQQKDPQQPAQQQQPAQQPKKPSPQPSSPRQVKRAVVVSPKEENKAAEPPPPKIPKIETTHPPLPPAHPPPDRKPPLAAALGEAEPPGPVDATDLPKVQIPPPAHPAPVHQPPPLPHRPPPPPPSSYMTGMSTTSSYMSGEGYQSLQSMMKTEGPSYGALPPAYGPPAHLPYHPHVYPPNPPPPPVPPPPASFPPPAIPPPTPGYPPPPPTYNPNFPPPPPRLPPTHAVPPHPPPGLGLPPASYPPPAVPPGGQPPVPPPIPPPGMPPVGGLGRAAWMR
row,SMILES,IC50
1,"CCC(=O)Nc1ccc(C(=O)N2CCC[C@@H](Nc3nccc(N4CCOCC4)n3)C2)cc1 [Example 42, (R)—N-(4-(3-((4-morpholinopyrimidin-2-yl)amino)piperidine-1-carbonyl)phenyl)propionamide]",30000 to 100000 nM
2,"C=CC(=O)Nc1ccc(C(=O)N2CC[C@@H](Nc3ncc(Cl)c(OC4CC4)n3)C2)cc1 [Example 56, (R)—N-(4-(3-((5-chloro-4-cyclopropoxypyrimidin-2-yl)amino)pyrrolidine-1-carbonyl)phenyl)acrylamide]",< 100 nM
3,"C=CC(=O)Nc1ccc(C(=O)N2CC[C@@H](Nc3cnc(C)cn3)C2)cc1 [Example 61, (R)—N-(4-(3-((5-methylpyrazin-2-yl)amino)pyrrolidine-1-carbonyl)phenyl)acrylamide]",1000 to 10000 nM
4,"C=CC(=O)Nc1ccc(C(=O)N2CC[C@@H](Nc3ccc(Cl)cn3)C2)cc1 [Example 64, (R)—N-(4-(3-((5-chloropyridin-2-yl)amino)pyrrolidine-1-carbonyl)phenyl)acrylamide]",100 to 1000 nM
5,"C=CC(=O)N1CCCc2cc(C(=O)N3CC[C@@H](Nc4ncc(Cl)c(OC)n4)C3)ccc21 [Example 65, (R)-1-(6-(3-((5-chloro-4-methoxypyrimidin-2-yl)amino)pyrrolidine-1-carbonyl)-3,4-dihydroquinolin-1(2H)-yl)prop-2-en-1-one]",< 100 nM
6,"C=CC(=O)Nc1ccc(C(=O)N2CC[C@@H](Nc3ncc(Cl)cn3)C2)cc1-c1cnn(C)c1 [Example 69, (R)—N-(4-(3-((5-chloropyrimidin-2-yl)amino)pyrrolidine-1-carbonyl)-2-(1-methyl-1H-pyrazol-4-yl)phenyl)acrylamide]",100 to 1000 nM
7,"C=CC(=O)Nc1ccc(C(=O)N2CC[C@@H](Nc3ncc(F)c(OC4CC4)n3)C2)cc1 [Example 71, (R)—N-(4-(3-((4-cyclopropoxy-5-fluoropyrimidin-2-yl)amino)pyrrolidine-1-carbonyl)phenyl)acrylamide]",100 to 1000 nM
8,"C=CC(=O)Nc1ccc(C(=O)N2CC[C@@H](Nc3ncc(Cl)c(OC)n3)C2)cc1N1CCCCC1 [Example 74, (R)—N-(4-(3-((5-chloro-4-methoxypyrimidin-2-yl)amino)pyrrolidine-1-carbonyl)-2-(piperidin-1-yl)phenyl)acrylamide]",< 100 nM
9,"C=CC(=O)Nc1ccc(C(=O)N2CC[C@@H](Nc3ccc(C)cn3)C2)cc1 [Example 75, (R)—N-(4-(3-((5-methylpyridin-2-yl)amino)pyrrolidine-1-carbonyl)phenyl)acrylamide]",1000 to 10000 nM
10,"C=CC(=O)Nc1ccc(C(=O)N2CC[C@@H](Nc3ncc(Br)cn3)C2)cc1C [Example 76, (R)—N-(4-(3-((5-bromopyrimidin-2-yl)amino)pyrrolidine-1-carbonyl)-2-methylphenyl)acrylamide]",< 100 nM
11,"C=CC(=O)Nc1ccc(C(=O)N2CC[C@@H](Nc3ncc(C(F)(F)F)cn3)C2)cc1C [Example 79, (R)—N-(2-methyl-4-(3-((5-(trifluoromethyl)pyrimidin-2-yl)amino)pyrrolidine-1-carbonyl)phenyl)acrylamide]",< 100 nM

# Continued, values first:
row,IC50,SMILES
1,100 to 1000 nM,"C=CC(=O)N1CCOc2cc(C(=O)N3CC[C@@H](Nc4ncc(Cl)cn4)C3)ccc21 [Example 34, (R)-1-(7-(3-((5-chloropyrimidin-2-yl)amino)pyrrolidine-1-carbonyl)-2H-benzo[b][1,4]oxazin-4(3H)-yl)prop-2-en-1-one]"
2,30000 to 100000 nM,"C=CC(=O)Nc1ccc(C(=O)N2CCC[C@@H](Nc3nccc(-c4ccnn4C)n3)C2)cc1 [Example 35, (R)—N-(4-(3-((4-(1-methyl-1H-pyrazol-5-yl)pyrimidin-2-yl)amino)piperidine-1-carbonyl)phenyl)acrylamide]"
3,30000 to 100000 nM,"C=CC(=O)Nc1ccc(C(=O)N2CCC[C@@H](Nc3nccc(N4CCOCC4)n3)C2)cc1 [Example 36, (R)—N-(4-(3-((4-morpholinopyrimidin-2-yl)amino)piperidine-1-carbonyl)phenyl)acrylamide]"
4,1000 to 10000 nM,"C=CC(=O)Nc1ccc(C(=O)N2CCC[C@@H](Nc3nccc(OC)n3)C2)cc1 [Example 37, (R)—N-(4-(3-((4-methoxypyrimidin-2-yl)amino)piperidine-1-carbonyl)phenyl)acrylamide]"
5,10000 to 30000 nM,"C=CC(=O)Nc1ccc(C(=O)N2CCC[C@@H](Nc3cnc(Cl)cn3)C2)cc1 [Example 38, (R)—N-(4-(3-((5-chloropyrazin-2-yl)amino)piperidine-1-carbonyl)phenyl)acrylamide]"
6,30000 to 100000 nM,"C=CC(=O)Nc1ccc(C(=O)N2CCC[C@@H](Nc3nccc(-c4cnn(C)c4)n3)C2)cc1 [Example 39, (R)—N-(4-(3-((4-(1-methyl-1H-pyrazol-4-yl)pyrimidin-2-yl)amino)piperidine-1-carbonyl)phenyl)acrylamide]"
7,10000 to 30000 nM,"C=CC(=O)Nc1ccc(C(=O)N2CCC[C@@H](Nc3nccc(OC4CCCC4)n3)C2)cc1 [Example 40, (R)—N-(4-(3-((4-(cyclopentyloxy)pyrimidin-2-yl)amino)piperidine-1-carbonyl)phenyl)acrylamide]"
8,30000 to 100000 nM,"CCC(=O)Nc1ccc(C(=O)N2CCC[C@@H](Nc3nccc(-c4cn[nH]c4)n3)C2)cc1 [Example 41, (R)—N-(4-(3-((4-(1H-pyrazol-4-yl)pyrimidin-2-yl)amino)piperidine-1-carbonyl)phenyl)propionamide]"
9,1000 to 10000 nM,CCC(=O)Nc1ccc(C(=O)N2CC[C@@H](Nc3nccc(-c4cn[nH]c4)n3)C2)cc1 [Example 43]
10,100 to 1000 nM,"C=CC(=O)Nc1ccc(C(=O)N2CC[C@@H](Nc3nccc(-c4cn[nH]c4)n3)C2)cc1 [Example 44, (R)—N-(4-(3-((4-(1H-pyrazol-4-yl)pyrimidin-2-yl)amino)pyrrolidine-1-carbonyl)phenyl)acrylamide]"
11,100 to 1000 nM,"C=CC(=O)N1CCOc2cc(C(=O)N3CC[C@@H](Nc4ncc(Cl)cn4)C3)ccc21 [Example 51, (R)-1-(7-(3-((5-chloropyrimidin-2-yl)amino)pyrrolidine-1-carbonyl)-2H-benzo[b][1,4]oxazin-4(3H)-yl)prop-2-en-1-one]"
12,100 to 1000 nM,"C=CC(=O)Nc1ccc(C(=O)N2CC[C@@H](Nc3ncc(C)cn3)C2)cc1 [Example 57, (R)—N-(4-(3-((5-methylpyrimidin-2-yl)amino)pyrrolidine-1-carbonyl)phenyl)acrylamide]"
13,100 to 1000 nM,"C=CC(=O)Nc1ccc(C(=O)N2CC[C@@H](Nc3cnc(C(F)(F)F)cn3)C2)cc1 [Example 60, (R)—N-(4-(3-((5-(trifluoromethyl)pyrazin-2-yl)amino)pyrrolidine-1-carbonyl)phenyl)acrylamide]"
14,100 to 1000 nM,"C=CC(=O)N1CCOc2cc(C(=O)N3CC[C@@H](Nc4ncc(Cl)c(OC)n4)C3)ccc21 [Example 63, (R)-1-(7-(3-((5-chloro-4-methoxypyrimidin-2-yl)amino)pyrrolidine-1-carbonyl)-2H-benzo[b][1,4]oxazin-4(3H)-yl)prop-2-en-1-one]"
15,< 100 nM,"C=CC(=O)Nc1ccc(C(=O)N2CC[C@@H](Nc3ncc(Cl)c(OC)n3)C2)cc1N1CCOCC1 [Example 68, (R)—N-(4-(3-((5-chloro-4-methoxypyrimidin-2-yl)amino)pyrrolidine-1-carbonyl)-2-morpholinophenyl)acrylamide]"
16,100 to 1000 nM,"C=CC(=O)Nc1ncc(C(=O)N2CC[C@@H](Nc3ncc(Cl)c(OC)n3)C2)s1 [Example 73, (R)—N-(5-(3-((5-chloro-4-methoxypyrimidin-2-yl)amino)pyrrolidine-1-carbonyl)thiazol-2-yl)acrylamide]"
17,< 100 nM,"C=CC(=O)Nc1ccc(C(=O)N2CC[C@@H](Nc3ncc(Cl)c(OC)n3)C2)cc1N1CCN(C)CC1 [Example 78, (R)—N-(4-(3-((5-chloro-4-methoxypyrimidin-2-yl)amino)pyrrolidine-1-carbonyl)-2-(4-methylpiperazin-1-yl)phenyl)acrylamide]"
